What all share (assay type): functional
The test system of experiment [1] is Candida albicans. Kind of experiment: Antifungal activity against Candida albicans NRRLY 477 assessed as growth inhibition at 1 mg/mL after 24 hrs by agar well diffusion assay. Particulars: NRRLY 477, 24 h, read-out: DIZ. For orientation: In agar diffusion tests the substance spreads into inoculated agar from a disc or well.
Experiment [2] concerns Saccharomyces cerevisiae. Nature of the experiment: Antifungal activity against Saccharomyces cerevisiae assessed as growth inhibition at 1 mg/mL after 24 hrs by agar well diffusion assay. Particulars: read-out: DIZ.
The test system of experiment [3] is Proteus vulgaris. Kind of experiment: Antibacterial activity against Proteus vulgaris assessed as growth inhibition at 1 mg/mL after 24 hrs by agar well diffusion assay. Particulars: read-out: DIZ.
For experiment [4], the system named is Micrococcus luteus. Kind of experiment: Antibacterial activity against Sarcina luteus assessed as growth inhibition at 1 mg/mL after 24 hrs by agar well diffusion assay. The following applies: read-out: DIZ.
Experiment [5] concerns Escherichia coli. Kind of experiment: Antibacterial activity against Escherichia coli ATCC 25922 assessed as growth inhibition at 1 mg/mL after 24 hrs by agar well diffusion assay. Particulars: ATCC 25922, 24 h, read-out: DIZ.
Experiment [6] concerns Pseudomonas aeruginosa. Nature of the experiment: Antibacterial activity against Pseudomonas aeruginosa ATCC 27953 assessed as growth inhibition at 1 mg/mL after 24 hrs by agar well diffusion assay. Particulars: ATCC 27953, 24 h, read-out: DIZ.
In experiment [7] the test system is Klebsiella pneumoniae. Kind of experiment: Antibacterial activity against Klebsiella pneumoniae ATCC 13883 assessed as growth inhibition at 1 mg/mL after 24 hrs by agar well diffusion assay. The following applies: ATCC 13883, 24 h, read-out: DIZ.
The subject of experiment [8] is Priestia megaterium. Nature of the experiment: Antibacterial activity against Bacillus megaterium ATCC 9885 assessed as growth inhibition at 1 mg/mL after 24 hrs by agar well diffusion assay. The following applies: ATCC 9885, 24 h, read-out: DIZ.
For experiment [9], the system named is Bacillus spizizenii. Kind of experiment: Antibacterial activity against Bacillus subtilis ATCC 6633 assessed as growth inhibition at 1 mg/mL after 24 hrs by agar well diffusion assay. Particulars: ATCC 6633, 24 h, read-out: DIZ.
For experiment [10], the system named is Staphylococcus aureus. Kind of experiment: Antibacterial activity against Staphylococcus aureus ATCC 29213 assessed as growth inhibition at 1 mg/mL after 24 hrs by agar well diffusion assay. The following applies: ATCC 29213, 24 h, read-out: DIZ.
The test system of experiment [11] is Escherichia coli. Nature of the experiment: Potency index, ratio of ciprofloxacin MIC to compound MIC for Escherichia coli ATCC 25922.
The subject of experiment [12] is Candida albicans. Nature of the experiment: Fungistatic activity against Candida albicans NRRLY 477 after 24 hrs by two-fold serial dilution assay. The following applies: NRRLY 477, 24 h.
Experiment [13] has as its system Saccharomyces cerevisiae. Kind of experiment: Fungistatic activity against Saccharomyces cerevisiae after 24 hrs by two-fold serial dilution assay.
Experiment [14] concerns Proteus vulgaris. Nature of the experiment: Bacteriostatic activity against Proteus vulgaris after 24 hrs by two-fold serial dilution assay.
Experiment [15] relates to Micrococcus luteus. Nature of the experiment: Bacteriostatic activity against Sarcina luteus after 24 hrs by two-fold serial dilution assay.
Experiment [16] deals with Escherichia coli. Nature of the experiment: Bacteriostatic activity against Escherichia coli ATCC 25922 after 24 hrs by two-fold serial dilution assay. Particulars: ATCC 25922, 24 h.
In experiment [17] the test system is Pseudomonas aeruginosa. Kind of experiment: Bacteriostatic activity against Pseudomonas aeruginosa ATCC 27953 after 24 hrs by two-fold serial dilution assay. The following applies: ATCC 27953, 24 h.
The test system of experiment [18] is Klebsiella pneumoniae. Nature of the experiment: Bacteriostatic activity against Klebsiella pneumoniae ATCC 13883 after 24 hrs by two-fold serial dilution assay. Particulars: ATCC 13883, 24 h.
The subject of experiment [19] is Priestia megaterium. Nature of the experiment: Bacteriostatic activity against Bacillus megaterium ATCC 9885 after 24 hrs by two-fold serial dilution assay. The following applies: ATCC 9885, 24 h.
For experiment [20], the system named is Bacillus spizizenii. Kind of experiment: Bacteriostatic activity against Bacillus subtilis ATCC 6633 after 24 hrs by two-fold serial dilution assay. Particulars: ATCC 6633, 24 h.
In experiment [21] the test system is Staphylococcus aureus. Kind of experiment: Bacteriostatic activity against Staphylococcus aureus ATCC 29213 after 24 hrs by two-fold serial dilution assay. The following applies: ATCC 29213, 24 h.
The subject of experiment [22] is Pseudomonas aeruginosa. Nature of the experiment: Potency index, ratio of ciprofloxacin MIC to compound MIC for Pseudomonas aeruginosa ATCC 27953.

In brackets after ≈: the same amount, converted by molar mass.

The MIC is the lowest concentration that inhibits growth of the organism. Read a high MIC as weaker potency.

Take `C/C(=N\NC(=S)Nc1ccc(C(=O)NCC(=O)O)cc1)c1ccc(Br)cc1`: the zone of inhibition at 1000 µg/mL in the experiment on Candida albicans [1] turned out to be 0 mm; with Saccharomyces cerevisiae [2], 18 mm; in the experiment with Proteus vulgaris [3], 20 mm; with Micrococcus luteus [4] it was 25 mm; in the experiment with Escherichia coli [5], 23 mm; with Pseudomonas aeruginosa [6], 19 mm. Moreover, the zone of inhibition at 1000 µg/mL in the experiment with Klebsiella pneumoniae [7] amounted to 19 mm; in the experiment with Priestia megaterium [8], 17 mm; in the experiment on Bacillus spizizenii [9], 15 mm; with Staphylococcus aureus [10], 20 mm.

For `Cc1ccc(/C=N/NC(=S)Nc2ccc(C(=O)NCC(=O)O)cc2)cc1`, the zone of inhibition at 1000 µg/mL in the experiment on Candida albicans [1] was 0 mm; in the experiment on Saccharomyces cerevisiae [2], 0 mm; in the experiment with Proteus vulgaris [3], 20 mm; in the experiment with Micrococcus luteus [4] it was 24 mm; with Escherichia coli [5], 0 mm; in the experiment on Pseudomonas aeruginosa [6], 0 mm. Moreover, the zone of inhibition at 1000 µg/mL was 0 mm in the experiment with Klebsiella pneumoniae [7], 9 mm in the experiment with Priestia megaterium [8], 0 mm with Bacillus spizizenii [9] and 10 mm in the experiment on Staphylococcus aureus [10].

As for `O=C(O)CNC(=O)c1ccc(NC(=S)N/N=C2/CC(=O)c3ccccc32)cc1`, the zone of inhibition at 1000 µg/mL with Candida albicans [1] was determined as 0 mm; in the experiment on Saccharomyces cerevisiae [2], 12 mm; with Proteus vulgaris [3], 20 mm; in the experiment with Micrococcus luteus [4] it was 24 mm; with Escherichia coli [5], 18 mm; in the experiment on Pseudomonas aeruginosa [6], 11 mm. The zone of inhibition at 1000 µg/mL with Klebsiella pneumoniae [7] was determined as 0 mm; in the experiment with Priestia megaterium [8], 0 mm; with Bacillus spizizenii [9], 9 mm; in the experiment on Staphylococcus aureus [10], 28 mm.

`O=C(O)CNC(=O)c1ccc(NC(=S)N/N=C/c2ccc(F)cc2)cc1`: the PI with Escherichia coli [11] is given as 2. Also, the MIC against Candida albicans [12] turned out to be 50 µg/mL (≈ 134 µM); in the experiment with Saccharomyces cerevisiae [13], 12.5 µg/mL (≈ 33.4 µM); against Proteus vulgaris [14] it was 12.5 µg/mL (≈ 33.4 µM); in the experiment with Micrococcus luteus [15], 25 µg/mL (≈ 66.8 µM); in the experiment on Escherichia coli [16], 6.25 µg/mL (≈ 16.7 µM); against Pseudomonas aeruginosa [17] it was 25 µg/mL (≈ 66.8 µM). Moreover, the MIC in the experiment on Klebsiella pneumoniae [18] was 12.5 µg/mL (≈ 33.4 µM); against Priestia megaterium [19] it was 12.5 µg/mL (≈ 33.4 µM); against Bacillus spizizenii [20] it was 12.5 µg/mL (≈ 33.4 µM); in the experiment on Staphylococcus aureus [21], 6.25 µg/mL (≈ 16.7 µM). Also, the zone of inhibition at 1000 µg/mL with Candida albicans [1] came to 20 mm; with Saccharomyces cerevisiae [2] it was 20 mm; with Proteus vulgaris [3] it was 26 mm; in the experiment with Micrococcus luteus [4], 28 mm; with Escherichia coli [5] it was 31 mm; in the experiment on Pseudomonas aeruginosa [6], 30 mm. The zone of inhibition at 1000 µg/mL came out at 30 mm in the experiment with Klebsiella pneumoniae [7], 19 mm in the experiment on Priestia megaterium [8], 20 mm with Bacillus spizizenii [9] and 28 mm in the experiment on Staphylococcus aureus [10].

On to `C/C(=N\NC(=S)Nc1ccc(C(=O)NCC(=O)O)cc1)c1ccccc1`, for which the zone of inhibition at 1000 µg/mL turned out to be 0 mm with Candida albicans [1]; 17 mm with Saccharomyces cerevisiae [2]; 19 mm in the experiment with Proteus vulgaris [3]; 25 mm in the experiment with Micrococcus luteus [4]; 19 mm in the experiment on Escherichia coli [5]; 19 mm with Pseudomonas aeruginosa [6]. Also, the zone of inhibition at 1000 µg/mL was determined as 18 mm in the experiment on Klebsiella pneumoniae [7], 18 mm in the experiment with Priestia megaterium [8], 14 mm with Bacillus spizizenii [9] and 20 mm with Staphylococcus aureus [10].

On to `O=C(O)CNC(=O)c1ccc(NC(=S)NN=C2CCCCC2)cc1`, for which the zone of inhibition at 1000 µg/mL in the experiment on Candida albicans [1] is 0 mm; with Saccharomyces cerevisiae [2], 0 mm; in the experiment with Proteus vulgaris [3] it was 20 mm; in the experiment on Micrococcus luteus [4], 24 mm; in the experiment on Escherichia coli [5] it was 0 mm; with Pseudomonas aeruginosa [6], 12 mm. The zone of inhibition at 1000 µg/mL with Klebsiella pneumoniae [7] was determined as 0 mm; with Priestia megaterium [8], 9 mm; with Bacillus spizizenii [9], 0 mm; in the experiment on Staphylococcus aureus [10], 11 mm.

In the case of `O=C(O)CNC(=O)c1ccc(NC(=S)N/N=C/c2ccc([N+](=O)[O-])cc2)cc1`, the zone of inhibition at 1000 µg/mL in the experiment on Candida albicans [1], in the experiment with Saccharomyces cerevisiae [2], in the experiment on Proteus vulgaris [3], in the experiment on Micrococcus luteus [4], with Escherichia coli [5] and in the experiment with Pseudomonas aeruginosa [6] was 0 mm in each case. In addition, the zone of inhibition at 1000 µg/mL in the experiment on Klebsiella pneumoniae [7] was determined as 0 mm; in the experiment on Priestia megaterium [8], 14 mm; in the experiment on Bacillus spizizenii [9], 15 mm; with Staphylococcus aureus [10], 11 mm.

As for `C/C(=N\NC(=S)Nc1ccc(C(=O)NCC(=O)O)cc1)c1ccc(Cl)cc1`, the zone of inhibition at 1000 µg/mL in the experiment with Candida albicans [1], in the experiment on Saccharomyces cerevisiae [2], with Proteus vulgaris [3], in the experiment with Micrococcus luteus [4], in the experiment on Escherichia coli [5] and in the experiment on Pseudomonas aeruginosa [6] was 0 mm each time. Besides, the zone of inhibition at 1000 µg/mL with Klebsiella pneumoniae [7] turned out to be 0 mm; in the experiment on Priestia megaterium [8], 14 mm; with Bacillus spizizenii [9] it was 15 mm; in the experiment on Staphylococcus aureus [10], 9 mm.

`C/C(=N\NC(=S)Nc1ccc(C(=O)NCC(=O)O)cc1)c1ccc(C)cc1`: the PI was determined as 2 in the experiment with Escherichia coli [11] and 4 with Pseudomonas aeruginosa [22]. The MIC was determined as 25 µg/mL (≈ 65 µM) against Candida albicans [12]; 6.25 µg/mL (≈ 16.3 µM) in the experiment on Saccharomyces cerevisiae [13]; 12.5 µg/mL (≈ 32.5 µM) with Proteus vulgaris [14]; 12.5 µg/mL (≈ 32.5 µM) against Micrococcus luteus [15]; 6.25 µg/mL (≈ 16.3 µM) in the experiment on Escherichia coli [16]; 3.12 µg/mL (≈ 8.12 µM) against Pseudomonas aeruginosa [17]. The MIC against Klebsiella pneumoniae [18] is 25 µg/mL (≈ 65 µM); in the experiment on Priestia megaterium [19], 12.5 µg/mL (≈ 32.5 µM); against Bacillus spizizenii [20] it was 12.5 µg/mL (≈ 32.5 µM); against Staphylococcus aureus [21], 6.25 µg/mL (≈ 16.3 µM). Moreover, the zone of inhibition at 1000 µg/mL with Candida albicans [1] is 25 mm; in the experiment with Saccharomyces cerevisiae [2], 26 mm; with Proteus vulgaris [3], 21 mm; in the experiment with Micrococcus luteus [4], 25 mm; in the experiment with Escherichia coli [5], 27 mm; with Pseudomonas aeruginosa [6], 32 mm. Also, the zone of inhibition at 1000 µg/mL in the experiment on Klebsiella pneumoniae [7] was found to be 22 mm; with Priestia megaterium [8] it was 25 mm; with Bacillus spizizenii [9], 19 mm; with Staphylococcus aureus [10] it was 29 mm.

Regarding `O=C(O)CNC(=O)c1ccc(NC(=S)NN=C(c2ccccc2)c2ccccc2)cc1`, the zone of inhibition at 1000 µg/mL in the experiment with Candida albicans [1] is 0 mm; in the experiment on Saccharomyces cerevisiae [2] it was 0 mm; in the experiment on Proteus vulgaris [3] it was 0 mm; in the experiment with Micrococcus luteus [4], 0 mm; in the experiment with Escherichia coli [5] it was 17 mm; with Pseudomonas aeruginosa [6] it was 12 mm. Besides, the zone of inhibition at 1000 µg/mL in the experiment on Klebsiella pneumoniae [7] was determined as 0 mm; in the experiment on Priestia megaterium [8] it was 15 mm; in the experiment on Bacillus spizizenii [9] it was 20 mm; with Staphylococcus aureus [10], 0 mm.

With `O=C(O)CNC(=O)c1ccc(NC(=S)N/N=C/c2cccc(Br)c2)cc1`, the zone of inhibition at 1000 µg/mL is 0 mm in the experiment with Candida albicans [1]; 11 mm in the experiment on Saccharomyces cerevisiae [2]; 0 mm in the experiment with Proteus vulgaris [3]; 18 mm in the experiment on Micrococcus luteus [4]; 20 mm in the experiment with Escherichia coli [5]; 11 mm in the experiment on Pseudomonas aeruginosa [6]. Also, the zone of inhibition at 1000 µg/mL with Klebsiella pneumoniae [7] came to 9 mm; in the experiment on Priestia megaterium [8] it was 18 mm; in the experiment with Bacillus spizizenii [9], 13 mm; in the experiment with Staphylococcus aureus [10], 18 mm.

The values are drawn from ChEMBL document CHEMBL2417483, “Synthesis of thiosemicarbazones derived from N-(4-hippuric acid)thiosemicarbazide and different carbonyl compounds as antimicrobial agents” (2013).
